Data from US20260250290A1 (BRISTOL-MYERS SQUIBB COMPANY, priority 2023, published 2026).
Counter-ions that a name gives are not always drawn.

Molecular target: T1, full length SGK1 (Homo sapiens, UniProt O00141)
T1 construct: 125 μM full length SGK1 (Life Technologies Part #PR7358A); purchased Life Technologies PR7358A
T1 sequence (O00141 1-431): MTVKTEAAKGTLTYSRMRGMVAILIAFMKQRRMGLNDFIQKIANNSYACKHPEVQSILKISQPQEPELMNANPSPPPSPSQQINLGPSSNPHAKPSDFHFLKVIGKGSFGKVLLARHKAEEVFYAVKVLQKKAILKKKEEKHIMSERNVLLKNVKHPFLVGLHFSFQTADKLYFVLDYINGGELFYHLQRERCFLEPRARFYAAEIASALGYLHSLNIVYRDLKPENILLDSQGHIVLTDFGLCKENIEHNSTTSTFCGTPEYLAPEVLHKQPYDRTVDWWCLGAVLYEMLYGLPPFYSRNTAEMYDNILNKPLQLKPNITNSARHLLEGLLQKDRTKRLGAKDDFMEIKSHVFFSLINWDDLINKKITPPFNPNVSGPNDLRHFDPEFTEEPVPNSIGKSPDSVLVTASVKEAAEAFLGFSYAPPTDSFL
Test: SGK1 inhibition Assay A (Caliper LabChip electrophoretic separation of fluorescent peptide substrate and phosphorylated product)
Format: biochemical
Details: Assay A; 20 μM ATP, 40 min incubation; read-out: SGK1 IC50

| SMILES | IC50 |
| --- | --- |
| CC(=O)N1CC=C(c2cc(N3CCC[C@@H](NC(=O)c4sc(C(F)F)cc4C4CCNC4)C3)c3c(N)ncnn23)C1 (stereo partly drawn) [Example 405, N-((R)-1-(7-(1-acetyl-2,5-dihydro-1H-pyrrol-3-yl)-4-aminopyrrolo[2,1-f][1,2,4]triazin-5-yl)piperidin-3-yl)-5-(difluoromethyl)-3-(pyrrolidin-3-yl)thiophene-2-carboxamide] | 304 nM |
| Cc1ccccc1C(=O)N[C@@H]1CCCN(c2cc(-c3ccc(S(C)(=O)=O)cc3)n3ncnc(N)c23)C1 [Example 52, (R)-N-(1-(4-amino-7-(4-(methylsulfonyl)phenyl)pyrrolo[2,1-f][1,2,4]triazin-5-yl)piperidin-3-yl)-2-methylbenzamide] | 210 nM |
| CC(=O)N1CC=C(c2cc(N3CCC[C@@H](NC(=O)c4sc(C5CC5)cc4OC4CCN(C5CC5)CC4)C3)c3c(N)ncnn23)C1 [Example 378, (R)-N-(1-(7-(1-acetyl-2,5-dihydro-1H-pyrrol-3-yl)-4-aminopyrrolo[2,1-f][1,2,4]triazin-5-yl)piperidin-3-yl)-5-cyclopropyl-3-((1-cyclopropylpiperidin-4-yl)oxy)thiophene-2-carboxamide] | 43 nM |
| CCN(CC)CCOc1cc(C(F)F)sc1C(=O)N[C@@H]1CCCN(c2cc(-c3cncnc3)n3ncnc(N)c23)C1 [Example 410, (R)-N-(1-(4-amino-7-(pyrimidin-5-yl)pyrrolo[2,1-f] [1,2,4]triazin-5-yl)piperidin-3-yl)-3-(2-(diethylamino)ethoxy)-5-(difluoromethyl) thiophene-2-carboxamide] | 198 nM |
| CC(=O)Nc1ccc(C(=O)N[C@@H]2CCCN(c3cc(C4=CCN(C(C)=O)C4)n4ncnc(N)c34)C2)cc1 [Example 466, (R)-4-acetamido-N-(1-(7-(1-acetyl-2,5-dihydro-1H-pyrrol-3-yl)-4-aminopyrrolo[2,1-f][1,2,4]triazin-5-yl)piperidin-3-yl)benzamide] | 50 nM |
| CN(C)CCOc1cc(Cl)sc1C(=O)N[C@@H]1CCCN(c2cc(C3=CCNCC3)n3ncnc(N)c23)C1 [Example 172, (R)—N-(1-(4-amino-7-(1,2,3,6-tetrahydropyridin-4-yl)pyrrolo[2,1-f][1,2,4]triazin-5-yl)piperidin-3-yl)-5-chloro-3-(2-(dimethylamino)ethoxy)thiophene-2-carboxamide, 3 TFA] | 350 nM |
| Nc1ncnn2c(-c3cn(CCC(=O)O)nn3)cc(N3CCC[C@@H](NC(=O)c4ccc(Cl)s4)C3)c12 [Example 864, (R)-3-(4-(4-amino-5-(3-(5-chlorothiophene-2-carboxamido)piperidin-1-yl)pyrrolo[2,1-f][1,2,4]triazin-7-yl)-1H-1,2,3-triazol-1-yl)propanoic acid] | 120 nM |

Now those with a lower IC50, led by results:

| IC50 | SMILES |
| --- | --- |
| 10 nM | CN(C)CCOc1cc(Cl)sc1C(=O)N[C@@H]1CCCN(c2cc(-c3ccc4nnnn4c3)n3ncnc(N)c23)C1 [Example 192, (R)-N-(1-(4-amino-7-(tetrazolo[1,5-a]pyridin-6-yl)pyrrolo[2,1-f][1,2,4]triazin-5-yl)piperidin-3-yl)-5-chloro-3-(2-(dimethylamino)ethoxy) thiophene-2-carboxamide] |
| 2 nM | Nc1ncnn2c(-c3ccc(=O)n(CC(F)F)c3)cc(N3CCC[C@@H](NC(=O)c4cc(-c5ccccc5)n[nH]4)C3)c12 [Example 504, (R)-N-(1-(4-amino-7-(1-(2,2-difluoroethyl)-6-oxo-1,6-dihydropyridin-3-yl)pyrrolo[2,1-f][1,2,4]triazin-5-yl)piperidin-3-yl)-3-phenyl-1H-pyrazole-5-carboxamide] |
| 11 nM | CC(=O)N1CC=C(c2cc(N3CCC[C@@H](NC(=O)c4cccc(N5CCN(C)CC5)n4)C3)c3c(N)ncnn23)C1 [Example 704, (R)-N-(1-(7-(1-acetyl-2,5-dihydro-1H-pyrrol-3-yl)-4-aminopyrrolo[2,1-f][1,2,4]triazin-5-yl)piperidin-3-yl)-6-(4-methylpiperazin-1-yl)picolinamide] |
